Measurements published in patent US12129312B2, “Peptide compound, application thereof and composition containing same” (priority 2017, dated 2024).
Where two headings read alike, the source gives them in different places. Square brackets hold non-standard residues; d marks the D form. Peptide text beside a SMILES is read from it. * marks the point of attachment. Hydrocinnamoyl = O=C(CCc1ccccc1)*; Tic = O=C(O)[C@@H]1Cc2ccccc2CN1; NMeL = CN[C@@H](CC(C)C)C(=O)O

Biological target: T1, human Chemokine like receptor 1 (Homo sapiens, UniProt Q99788)
T1 construct: host or cells: U2OS (Tango CMKLR1-bla U2OS)
T1 sequence (Q99788 1-373): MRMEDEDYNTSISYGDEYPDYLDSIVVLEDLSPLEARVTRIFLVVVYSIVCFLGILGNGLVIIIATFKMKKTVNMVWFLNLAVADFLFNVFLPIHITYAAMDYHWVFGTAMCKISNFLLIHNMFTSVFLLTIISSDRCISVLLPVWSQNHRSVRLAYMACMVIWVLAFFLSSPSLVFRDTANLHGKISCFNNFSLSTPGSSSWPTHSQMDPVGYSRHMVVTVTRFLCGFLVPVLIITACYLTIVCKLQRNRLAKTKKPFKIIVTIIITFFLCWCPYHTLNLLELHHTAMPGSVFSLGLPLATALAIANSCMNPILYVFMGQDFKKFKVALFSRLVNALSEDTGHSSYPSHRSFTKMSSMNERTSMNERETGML
Test: Activation of Tango CMKLR1-bla U2OS cells (beta-lactamase FRET reporter)
Type: cell-based
Settings: read-out: EC50
Procedure, shortened: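 Agonist mode in Tango CMKLR1-bla U2OS cells, 10000 cells/well seeded overnight, then 10-point 3-fold compound dilutions from 10 mM DMSO stock applied for 4 h at 37 °C, 5% CO2. Beta-lactamase reporter read with CCF4-AM FRET substrate; peptide (D-Tyr)-Phe-Leu-Pro-(D-Ser)-Gln-Phe-(D-Ala)-Tic-Ser served as positive control.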

| SMILES | EC50 (Tango CMKLR1-bla U2OS cells, 4 hours incubation, four-parameter fit of activation rate) [nM] | EC50 (determination by the method of Effect Embodiment 1) [nM] |
| --- | --- | --- |
| CC(C)C[C@H](NC(=O)[C@H](Cc1ccccc1)NC(=O)[C@H](N)Cc1ccc(O)cc1)C(=O)N1CCC[C@H]1C(=O)N[C@H](CO)C(=O)N[C@@H](CCC(N)=O)C(=O)N[C@@H](Cc1ccccc1)C(=O)N[C@H](C)C(=O)N1Cc2ccccc2C[C@H]1C(=O)N[C@@H](CO)C(=O)O [YW-3, (D-Tyr)-Phe-Leu-Pro-(D-Ser)-Gln-Phe-(D-Ala)-Tic-Ser, reference compound] (H-[dY]FLP[dS]QF[dA][Tic]S-OH) | 19 |  |
| CC(C)C[C@@H](C(=O)N1CCC[C@H]1C(=O)N[C@H](CO)C(=O)N[C@@H](CCC(N)=O)C(=O)N[C@@H](Cc1ccccc1)C(=O)N[C@H](C)C(=O)N1Cc2ccccc2C[C@H]1C(=O)N[C@@H](CO)C(=O)O)N(C)C(=O)[C@H](Cc1ccccc1)NC(=O)[C@@H](Cc1ccc(O)cc1)NC(=O)CCc1ccccc1 [YW-111, 3-phenylpropanoyl-(D-Tyr)-Phe-(NMe-Leu)-Pro-(D-Ser)-Gln-Phe-(D-Ala)-Tic-Ser-OH] (Hydrocinnamoyl-[dY]F[NMeL]P[dS]QF[dA][Tic]S-OH) |  | 2 |
